Literature values as cited in patent publication US20250228849A1, “FORMULATION AND MANUFACTURING PROCESS OF LIQUID FORMULATION OF RILPIVIRINE” (Aptorum Therapeutics Limited, priority 2024, published 2025).
Read-outs that look alike come from different tables or passages of the source.

Assays:
[1] = pyrimidine nitrogen
[2] = hydrochloride salt form

| pKa [1] | solubility (in DMSO) | solubility (in ethanol) | solubility (in methanol) | solubility (in water) | BCS class [2] | Structure (SMILES) |
| --- | --- | --- | --- | --- | --- | --- |
| approximately 5.6 | moderately soluble | moderately soluble | moderately soluble | merely sparing solubility | BCS Class II | Cc1cc(C=CC#N)cc(C)c1Nc1ccnc(Nc2ccc(C#N)cc2)n1.Cl [Rilpivirine hydrochloride, 4-[[4-[[4-(2-cyanovinyl)-2,6-dimethylphenyl]amino]pyrimidin-2-yl]amino]benzonitrile hydrochloride] |
| – | – | – | – | low aqueous solubility | – | Cc1cc(/C=C/C#N)cc(C)c1Nc1ccnc(Nc2ccc(C#N)cc2)n1 [rilpivirine] |
